Legend:
[1] = test system: beneficial oral bacteria and pathogenic oral bacteria; experiment: Metabolic activity, whole panel: prebiotic effect; format: cell-based; settings: threshold value of 2
How it was run: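 Biolog phenotype microarrays with dipeptide-preloaded wells; each species suspended in IF-0 with Redox Dye Mix D (85% transmittance) plus succinate/ferric citrate, incubated anaerobically at 37° C. Tetrazolium reduction read at 492 nm at 24 and 48 h versus no-dipeptide controls; values are means of three biological replicates.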

[2] = test system: beneficial oral bacteria and pathogenic oral bacteria; experiment: Biofilm growth, whole panel: prebiotic effect; format: cell-based; settings: threshold value of 1.6
Procedure: Substrates that were able to increase the biofilm mass of at least one of the above beneficial bacteria while not or only minimally increasing the biofilm mass of the pathogenic bacteria are considered to be prebiotic compounds.
The increase in biofilm formation of the tested bacteria in response to selected compounds (Met-Pro, Phe-Glu) was investigated by setting up biofilm growth assays in a nutritionally rich medium (brain heart infusion broth (BHI), Oxoid), over 48 hours. Late exponential growth phase liquid cultures were prepared by transferring the respective bacterium from blood agar plates to BHI and overnight incubation at 37° C. in an anaerobic atmosphere for A. viscosus, V. parvula, F. nucleatum, P. gingivalis, P. intermedia, T. forsythia, A. naeslundii, and C. sputigena, and in a 5% CO2 environment for S. salivarius, S. sanguinis, S. mitis, A. actinomycetemcomitans, S. mutans, and S. gordonii. Overnight cultures were transferred to BHI and adjusted to a concentration of 1×10^7 CFU/ml by measuring the optical density at 600 nm (OD600) (BioRad SmartSpec 3000). For each strain, 200 μl of the bacterial suspension was added to a 96-well plate containing 20 μl of the respective di-peptides. Final concentrations of the di-peptides were set to 5, 10, 20 and 25 μmol/ml. […] Additionally, for each bacterium tested, a background control, to correct for background staining, was added. This background control contained the bacterium tested and 0.03 weight % chlorhexidine, as an antiseptic. Plates were incubated as previously described. After 48 hrs the supernatant was removed from the wells of the plates. The wells were washed twice with 1×100 μL PBS (phosphate buffered saline), fixed for 20 minutes with 96% vol. ethanol (96% vol. solution in water) and the biofilm retained at the bottom of the wells was stained with 1 weight % crystal violet (1 weight % solution in water). The bound dye was dissolved with 5% vol. acetic acid (5% vol. solution in water). Quantification of the stained biofilm was performed by measuring the absorbance at 630 nm using a Multiskan Ascent microplate reader (Thermo Scientific).
The experiment was carried out on three different days (thus providing 3 biological replicas) and each day the experiment was carried out in quadruple (thus providing 4 technical replicas) for each combination of bacterium with dipeptide and for each control. For each day and for each combination, the average (mean) of the values obtained (as detailed above) for the four technical replicas was calculated to provide a single value for each combination on each day. The values shown in Tables 7 to 8, below, are the average (mean) of the three single values obtained for each combination of bacterium with dipeptide.
This value was selected in order to exclude low-stimulating metabolites and avoid false positive results.

Phe-Glu
exhibited prebiotic effects: prebiotic effects (metabolic activity) ([1]; 24 hrs) | prebiotic effects (metabolic activity) ([1]; 48 hrs) | prebiotic effects (biofilm growth) ([2]; 5 μmol/ml) | prebiotic effects (biofilm growth) ([2]; 10 μmol/ml)

Met-Pro
exhibited prebiotic effects: prebiotic effects (metabolic activity) ([1]; 24 hrs) | prebiotic effects (metabolic activity) ([1]; 48 hrs) | prebiotic effects (biofilm growth) ([2]; 10 μmol/ml) | prebiotic effects (biofilm growth) ([2]; 20 μmol/ml) | prebiotic effects (biofilm growth) ([2]; 25 μmol/ml)
